Measured values as given in publication PMC7848139, “Novel Hybrid CHC from β-carboline and N-Hydroxyacrylamide Overcomes Drug-Resistant Hepatocellular Carcinoma by Promoting Apoptosis, DNA Damage, and Cell Cycle Arrest” (Frontiers in Pharmacology, 2021).

How the values were obtained:
LO2 cells = test: MTT assay on normal liver LO2 cells; type: cell-based, human; settings: increasing dosages, 72 h
Procedure: Human cancer cell lines (SMMC-7721, Bel7402, Huh7, HCT116), drug-resistant cell lines (Bel7402/5-FU), and human normal hepatocyte cells (LO2) were purchased from Institute of Cell Biology (Shanghai, China).
(§1) Briefly, appropriate cells (1 × 10^4 cells/mL) were placed into 96-well plates in 100 μL of DMEM medium overnight. Then adding 100 μL of evaluated compounds into individual well for 72 h while 0.1% DMSO aqueous solution was treated as the negative control. After incubation with 30 μl MTT (5 mg/mL) for 4 h in all well, and ELISA plate reader measured absorbance of each well at 570 nm. Then calculating cytotoxicity effect of evaluated compounds through the formula: Cell inhibitory percentage (%) = (1−OD of treatment group/OD of control) × 100%. GraphPadPrism (4.03) calculated data to afford Corresponding IC50 values.
FIGURE 3 Inhibition potency of CHC against the proliferation on Bel7402, Bel7402/5-FU, and LO2 cells. Cells were treated with CHC at the indicated concentrations for 72 h. MTT assays were performed to evaluate cell proliferation. The inhibition (%) rate (mean ± SD) were from three separate experiments.

Huh7 = test: MTT antiproliferative assay, Huh7; type: cell-based; settings: Homo sapiens, Huh-7, 72 h, mean ± SD of three experiments, read-out: In vitro antiproliferative activity (IC50) Huh7
Procedure: as §1, with “100%.” for “100%. GraphPadPrism (4.03) calculated data to afford Corresponding IC50 values.”

Bel7402 = test: MTT antiproliferative assay, Bel7402; type: cell-based; settings: Homo sapiens, Bel-7402, 72 h, mean ± SD of three experiments, read-out: In vitro antiproliferative activity (IC50) Bel7402
Procedure: as §1, with “100%.” for “100%. GraphPadPrism (4.03) calculated data to afford Corresponding IC50 values.”

CT-DNA = test: UV-visible spectroscopy titrations with CT DNA; type: binding, calf; settings: 20 μM compound, equal increments of CT-DNA, 25°C
Procedure: The ultraviolet spectrophotometer (UV2500, Shimadzu, Tokyo, Japan) recorded UV–visible spectroscopy under titrations at 25°C. Tris buffer (5 mM) was used to prepare Stock solutions of CT DNA (20 μM, calf thymus DNA) comprising ideal structure of double stranded DNA. Dissolving synthesized derivative in 1:1000 DMSO/Milli Q water to prepare stock solutions of them (20 μM). UV–visible absorption titrations were carried out with addition of 100 μl CT DNA solution to 4 ml solution of tested compound in quartz cuvette each time interval. Until the absorption band of complex containing synthesized derivative and CT DNA kept at a stable wavelength after adding CT DNA successfully for five times, titrations were finished. Finally, spectrophotometer noted the absorption spectra (250–500 nm).
FIGURE 7 UV-visible absorption spectra of CHC after adding equal amounts of CT DNA. Arrows indicate changes in absorbance with increasing concentrations of DNA [CHC] = 20 μM.

HCT116 = test: MTT antiproliferative assay, HCT116; type: cell-based; settings: Homo sapiens, HCT-116, 72 h, mean ± SD of three experiments, read-out: In vitro antiproliferative activity (IC50) HCT116
Procedure: as §1, with “100%.” for “100%. GraphPadPrism (4.03) calculated data to afford Corresponding IC50 values.”

recombinant human HDAC3 = target: T1, recombinant human HDAC3 (Homo sapiens, UniProt O15379); test: HDAC fluorimetric assay, HDAC3; type: biochemical; settings: mean ± SD of three experiments
T1 construct: purchased Enzo Life Sciences Inc
T1 sequence (O15379 whole entry): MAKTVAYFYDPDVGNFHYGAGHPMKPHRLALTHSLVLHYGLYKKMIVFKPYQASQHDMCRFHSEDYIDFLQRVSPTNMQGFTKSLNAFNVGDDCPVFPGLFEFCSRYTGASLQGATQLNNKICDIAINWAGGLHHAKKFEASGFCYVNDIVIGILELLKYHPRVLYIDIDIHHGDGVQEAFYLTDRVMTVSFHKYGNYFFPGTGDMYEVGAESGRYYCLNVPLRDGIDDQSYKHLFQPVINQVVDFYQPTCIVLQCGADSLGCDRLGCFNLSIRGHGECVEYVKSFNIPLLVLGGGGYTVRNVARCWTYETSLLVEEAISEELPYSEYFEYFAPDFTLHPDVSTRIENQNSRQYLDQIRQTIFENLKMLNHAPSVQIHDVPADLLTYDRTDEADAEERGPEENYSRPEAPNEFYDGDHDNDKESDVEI
T1 sequence (O75376 395-489 partner limits assumed): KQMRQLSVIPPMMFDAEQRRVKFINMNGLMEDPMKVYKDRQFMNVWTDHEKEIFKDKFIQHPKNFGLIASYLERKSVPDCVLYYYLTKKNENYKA
Procedure: The assay was conducted according to the HDAC1/3/6/8 assay kit (Enzo Life Sciences Inc.). Each different concentrations of evaluated compounds were, respectively, incubated with each HDAC1/3/6/8 at coupling of corresponding HDAC substrate (Boc-Lys (Ac)-AMC) at 37°C for 60 min. Then stopping the reaction under adding lysine developer.

[1] = tested on: SUMM-7721, Bel7402, Huh7, HCT116 and Bel7402/5FU cells; test: MTT antiproliferative assay, range over the five cancer cell lines; type: cell-based; settings: Homo sapiens; range over drug-sensitive SUMM-7721, Bel7402, Huh7, HCT116 and drug-resistant Bel7402/5FU cells
Procedure: as §1, with “100%.” for “100%. GraphPadPrism (4.03) calculated data to afford Corresponding IC50 values.”

[2] = tested on: H2AX (S139ph) in Bel7402/5-FU cells; test: Western blotting of DNA damage marker H2AX; type: cell-based, human; settings: 72 h
Procedure: The HDAC, autophagy and apoptosis-related proteins were analyzed according to Western blotting assay. […]. And anti-Ac-histone H3, anti-Ac-histone H4, anti-Ac-α-tubulin, anti-Bax, anti-Bcl2, anti-H2AX (S139ph), anti-CDK1, anti-cyclin B, and anti-β-actin antibodies (Cell Signaling Technology, MA, United States) detected the target proteins after membranes were blocked with 5% fat-free milk. The peroxidase-conjugated secondary antibodies detected the bound antibodies for 1 h and visualized according to improved chemiluminescent reagent.
[…]; (B) The relative expression levels of H2AX protein were quantitatively analyzed using an internal reference β-actin, and the data (mean ± SD) were from three separate experiments. *p < 0.01 vs. control.

Bel7402/5-FU xenografts = test: In vivo tumor growth inhibition, Bel7402/5-FU xenograft; set-up: species or system BALB/c nude mice; settings: intraperitoneal daily, 21 days
Procedure: All animal experimental protocols were approved by the Animal Research and Care Committee of Nantong University. Female BALB/c nude mice at 5∼6 week-old were subcutaneously implanted with 1×10^6 Bel7402/5-FU cells. […] The body mass and tumor size of nude mice were surveyed every three days during the 21 days study. Tumor size (mm^3) of nude mice was determined using the formula: tumor size = ½ (Length×Width^2). Finally, these tumor-bearing mice were sacrificed, and their tumors were removed and weighed at the end of the 21 days.
Data (means ± SD) were from tumor volumes or weight of each group of mice (n = 6 per group). *p < 0.01 vs. control group.

SMMC-7721 = test: MTT antiproliferative assay, SMMC-7721; type: cell-based; settings: Homo sapiens, 72 h, mean ± SD of three experiments, read-out: In vitro antiproliferative activity (IC50) SMMC-7721
Procedure: as §1, with “100%.” for “100%. GraphPadPrism (4.03) calculated data to afford Corresponding IC50 values.”

CN(C)c1ccc(-c2nc(C(=O)NCc3ccc(/C=C/C(=O)NO)cc3)cc3c2[nH]c2ccccc23)cc1 [CHC, (E)-N-(4-(3-(hydroxyamino)-3-oxoprop-1-en-1-yl)benzyl)-1-(4-dimethylaminophenyl)-9H-pyrido [3,4-b]indole-3-carboxamide]
cytotoxicity on normal liver LO2 cells growth (LO2 cells): minimal cytotoxicity effects
IC50 (Huh7): 2890 ± 320 nM
IC50 (Bel7402): 1840 ± 230 nM
change of UV-visible absorption upon adding CT-DNA (CT-DNA): absorption at all wavelengths gradually decreased
IC50 (HCT116): 2050 ± 190 nM
IC50 (recombinant human HDAC3): 134 ± 16 nM
IC50 [1]: 1840 to 3270 nM
expression of phosphorylated H2AX [2]: induced the expression of phosphorylated H2AX in Bel7402/5-FU cells in a dosage-dependent manner
decrease of tumor mass compared to saline group (Bel7402/5-FU xenografts; 70 μmol/kg): 65 % (w/w)
tumor mass at end of treatment (Bel7402/5-FU xenografts; 70 μmol/kg, n = 6, saline group 1.47 ± 0.21 g): 0.51 ± 0.08 g
body mass change vs vehicle group (Bel7402/5-FU xenografts): no significant statistical difference
xenograft hepatic tumor volume (Bel7402/5-FU xenografts): markedly diminished xenograft hepatic tumor volume
IC50 (SMMC-7721): 3270 ± 360 nM
